According to patent publication US7709482B2, “Polycyclic heteroaryl substituted triazoles useful as Axl inhibitors” (Rigel Pharmaceuticals, Inc., priority 2006, dated 2010):
Read-outs that look alike come from different tables or passages of the source.

Biological target: T1, Axl (Homo sapiens, UniProt P30530)
T1 construct: endogenous in cells; host or cells: HeLa cells
T1 sequence (P30530 26-894): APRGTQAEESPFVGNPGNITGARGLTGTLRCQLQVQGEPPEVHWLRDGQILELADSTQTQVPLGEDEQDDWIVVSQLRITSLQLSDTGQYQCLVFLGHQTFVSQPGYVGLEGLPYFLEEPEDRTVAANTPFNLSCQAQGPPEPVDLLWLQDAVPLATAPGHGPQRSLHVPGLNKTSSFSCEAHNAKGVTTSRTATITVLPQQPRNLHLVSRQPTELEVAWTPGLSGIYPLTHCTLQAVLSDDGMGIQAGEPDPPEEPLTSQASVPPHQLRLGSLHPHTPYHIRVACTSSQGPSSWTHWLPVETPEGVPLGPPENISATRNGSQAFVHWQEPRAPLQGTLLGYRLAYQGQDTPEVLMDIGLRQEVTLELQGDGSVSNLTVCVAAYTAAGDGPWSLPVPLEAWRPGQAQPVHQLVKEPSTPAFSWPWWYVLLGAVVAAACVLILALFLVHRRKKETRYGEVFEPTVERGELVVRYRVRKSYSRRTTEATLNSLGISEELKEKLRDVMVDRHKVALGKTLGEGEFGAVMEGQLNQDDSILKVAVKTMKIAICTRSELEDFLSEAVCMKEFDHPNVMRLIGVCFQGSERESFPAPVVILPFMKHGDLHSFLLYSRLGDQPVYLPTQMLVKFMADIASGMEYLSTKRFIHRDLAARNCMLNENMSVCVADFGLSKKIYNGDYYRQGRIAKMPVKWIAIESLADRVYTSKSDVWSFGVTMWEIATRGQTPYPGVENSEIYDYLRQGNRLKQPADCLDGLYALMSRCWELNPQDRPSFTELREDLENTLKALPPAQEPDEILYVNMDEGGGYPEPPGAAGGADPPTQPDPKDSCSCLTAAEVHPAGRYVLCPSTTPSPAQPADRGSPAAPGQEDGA
Assay: Phospho-Akt In-Cell Western Assay (inhibition of Axl activity after Axl-antibody cross-linking)
Type: cell-based
Procedure: The compounds of the invention were tested in the following assay for their ability to inhibit Axl activity.
Phospho-Akt In-Cell Western Assay
• Cell culture plate: 96 well assay plate (Corning 3610), white, clear bottom, tissue-culture treated. • Cells: Hela cells. • Starvation medium: For Axl stimulation: 0.5% FCS (fetal calf serum) in DMEM, plus Axl/Fc (extracellular domain of AXL fused to immunoglobulin Fc region) (R&D, 154-AL) 500 ng/mL. • For EGF (epidermal growth factor) stimulation: 0.5% FCS in DMEM (Dulbecco's modified Eagles medium). • Poly-L-Lysine 0.01% solution (the working solution): […], dilute In PBS (phosphate buffered saline). • Axl antibody cross-linking: • 1st: Mouse anti-Axl (R&D, MAB154). • 2nd: Biotin-SP-conjugated AffiniPure goat anti-mouse IgG (H+ L) (Jackson ImmunoResearch #115-065-003). • Fixing buffer: 4% formaldehyde in PBS. • Wash buffer: 0.1% TritonX-100 in PBS. • Quenching buffer: 3% H2O2, 0.1% Azide in wash buffer, Azide and hydrogen peroxide (H2O2) are added fresh. • Blocking buffer: 5% BSA in TBST (tris buffered saline plus 0.1% Tween 20). • Primary antibody: Rabbit anti-human Phospho-Akt antibody (Cell Signaling 9271): 1×250 diluted in blocking buffer. • Secondary antibody: HRP (horse radish peroxidase)-conjugated Goat anti-Rabbit secondary, stock solution: Jackson ImmunoResearch (Goat anti-Rabbit HRP, #111-035-144) 1:1 diluted in glycerol, store at −20° C. The working solution: 1×2000 dilution of stock in blocking buffer. • Chemiluminescent working solution (Pierce, 37030): SuperSignal ELISA (enzyme linked immunosorbant assay) Pico Chemiluminescent substrate. • Crystal Violet solution: Stock: 2.5% Crystal violet in methanol, filtered and kept at ambient temperature. The working solution: dilute the stock 1:20 with PBS immediately before use. • 10% SDS: working solution: 5% SDS (sodium dodecylsulfate), diluted in PBS Methods: Day 1:
A 96 well TC (tissue culture treated) plate was coated with 10 μg/mL poly-L-Lysine at 37° C. for 30 min, washed twice with PBS, and air-dried for 5 minutes before cells were added. Hela cells were seeded at 10,000 cells/well and the cells were starved in 100 μL starvation medium containing Axl/Fc for 24 hrs.
The cells were pre-treated with test compounds by adding 100 μL of 2× test compound to the starvation medium on the cells. The cells were incubated at 37° C. for 1 hr before stimulation.
The resulting mix was warmed to 37° C. 50 μL of 5×Axl 1st/2nd of antibody cluster was added to the cells and the cells were incubated at 37° C. for 5 min.
After 5 minutes stimulation, the plate was flicked to remove medium and the plate was tapped onto paper towels. Formaldehyde (4.0% in PBS, 100 μL) was added to fix the cells and the cells were incubated at ambient temperature for 20 min without shaking.
The cells were washed with a plate washer buffer to remove the formaldehyde solution. The plate was flicked to removed excess wash buffer and tapped onto paper towels. Quenching buffer (100 μL) was added to each well and the cells were incubated at ambient temperature for 20 minutes without shaking.
The cells were washed with a plate washer buffer to remove the quenching buffer. Blocking buffer (100 μL) was added and the cells were incubated at ambient temperature for at least an hour with gentle shaking.
The cells were washed with a plate washer buffer and diluted primary antibody (50 μL) was added to each well (blocking buffer was added to the negative control wells instead). The plates were incubated overnight at 4° C. with gentle shaking.
The wash buffer was removed, diluted secondary antibody (100 μL) was added, and the cells were incubated at ambient temperature for 1 hour with gentle shaking. During the incubation, the chemiluminescent reagent was brought to ambient temperature.
The secondary antibody was removed by washing the cells 1× with wash buffer, 1× with PBS by plate washer.

[1] = Hela cells, phospho-Akt chemiluminescence normalized to relative cell number, compounds of formula (Ia), Table 1, read-out: IC50

| Compound | IC50 [1] [µM] | IC50 [µM] |
| --- | --- | --- |
| Nc1nc(Nc2ccc(OCCN3CCCC3)cc2)nn1-c1cc2c(nn1)-c1ccccc1CCC2 [Compound 1, 1-(6,7-dihydro-5H-benzo[6,7]cyclohepta[1,2-c]pyridazin-3-yl)-N^3-(4-(2-(pyrrolidin-1-yl)ethoxy)phenyl)-1H-1,2,4-triazole-3,5-diamine] | < 1 |  |
| Nc1nc(Nc2ccc(N3CCN(C4CCCCC4)CC3)cc2)nn1-c1cc2c(nn1)-c1ccccc1CCC2 [Compound 3, N^3-(4-(4-cyclohexanylpiperazin-1-yl)phenyl)-1-(6,7-dihydro-5H-benzo[6,7]cyclohepta[1,2-c]pyridazin-3-yl)-1H-1,2,4-triazole-3,5-diamine] | < 1 |  |
| Nc1nc(Nc2ccc(N3CCC(N4CCCC4)CC3)c(F)c2)nn1-c1cc2c(nn1)-c1ccccc1CCC2 [Compound 4] | < 1 |  |
| CN1CCN(c2ccc(Nc3nc(N)n(-c4cc5c(nn4)-c4ccccc4CCC5)n3)cc2F)CC1c1ccccc1 (stereo not drawn) [Compound 5, 1-(6,7-dihydro-5H-benzo[6,7]cyclohepta[1,2-c]pyridazin-3-yl)-N^3-(3-fluoro-4-(4-methyl-3-phenylpiperazin-1-yl)phenyl)-1H-1,2,4-triazole-3,5-diamine] | > 20 |  |
| Nc1nc(Nc2ccc(N3CCC(N4CCCCC4)CC3)c(F)c2)nn1-c1cc2c(nn1)-c1ccccc1CCC2 [Compound 6, 1-(6,7-dihydro-5H-benzo[6,7]cyclohepta[1,2-c]pyridazin-3-yl)-N^3-(3-fluoro-(4-(4-piperidin-1-yl)piperidin-1-yl)phenyl)-1H-1,2,4-triazole-3,5-diamine] | < 1 |  |
| Nc1nc(Nc2ccc(N3CCC(N4C(=O)Cc5ccccc54)CC3)c(F)c2)nn1-c1cc2c(nn1)-c1ccccc1CCC2 [Compound 7, 1-(6,7-dihydro-5H-benzo[6,7]cyclohepta[1,2-c]pyridazin-3-yl)-N^3-(3-fluoro-4-(4-(indolin-2-on-1-yl)piperidin-1-yl)phenyl)-1H-1,2,4-triazole-3,5-diamine] |  | > 20 |
| Nc1nc(Nc2ccc(N3CCN(C4CC5CCC4C5)CC3)nc2)nn1-c1cc2c(nn1)-c1ccccc1CCC2 (stereo not drawn) [Compound 8, 1-(6,7-dihydro-5H-benzo[6,7]cyclohepta[1,2-c]pyridazin-3-yl)-N^3-(6-(4-(bicyclo[2.2.1]heptan-2-yl)piperazin-1-yl)pyridin-3-yl)-1H-1,2,4-triazole-3,5-diamine] | 1 to 10 |  |
| Nc1nc(Nc2ccc(N3CCC(N4CCOCC4)CC3)c(F)c2)nn1-c1cc2c(nn1)-c1ccccc1CCC2 [Compound 9, 1-(6,7-dihydro-5H-benzo[6,7]cyclohepta[1,2-c]pyridazin-3-yl)-N^3-(3-fluoro-4-(4-(morpholin-4-yl)piperidin-1-yl)phenyl)-1H-1,2,4-triazole-3,5-diamine] | 1 to 10 |  |
| Nc1nc(Nc2ccc(C(=O)N3CCN(C4CCCC4)CC3)cc2)nn1-c1cc2c(nn1)-c1ccccc1CCC2 [Compound 10, 1-(6,7-dihydro-5H-benzo[6,7]cyclohepta[1,2-c]pyridazin-3-yl)-N^3-(4-(4-(cyclopentyl)piperazin-1-ylcarbonyl)phenyl)-1H-1,2,4-triazole-3,5-diamine] | 1 to 10 |  |
| Nc1nc(Nc2ccc3c(c2)NC(=O)CCC3)nn1-c1cc2c(nn1)-c1ccccc1CCC2 [Compound 11, 1-(6,7-dihydro-5H-benzo[6,7]cyclohepta[1,2-c]pyridazin-3-yl)-N^3-(4,5-dihydro-1H-benzo[b]azepin-2(3H)-on-8-yl)-1H-1,2,4-triazole-3,5-diamine] | < 1 |  |
| Nc1nc(Nc2ccc(C(=O)NCCN3CCCC3)cc2)nn1-c1cc2c(nn1)-c1ccccc1CCC2 [Compound 12, 1-(6,7-dihydro-5H-benzo[6,7]cyclohepta[1,2-c]pyridazin-3-yl)-N^3-(4-((2-pyrrolidin-1-ylethyl)aminocarbonyl)phenyl)-1H-1,2,4-triazole-3,5-diamine] | < 1 |  |
| CN(C)Cc1nc2cc(Nc3nc(N)n(-c4cc5c(nn4)-c4ccccc4CCC5)n3)ccc2[nH]1 [Compound 13, 1-(6,7-dihydro-5H-benzo[6,7]cyclohepta[1,2-c]pyridazin-3-yl)-N^3-(2-((dimethylamino)methyl)-1H-benzo[d]imidazol-5-yl)-1H-1,2,4-triazole-3,5-diamine] | 1 to 10 |  |
| CC1(C)CCCC(C)(C)N1CCOc1ccc(Nc2nc(N)n(-c3cc4c(nn3)-c3ccccc3CCC4)n2)cc1 [Compound 14, 1-(6,7-dihydro-5H-benzo[6,7]cyclohepta[1,2-c]pyridazin-3-yl)-N^3-(4-(2,2,6,6-tetramethylpiperidin-1-yl)ethoxyphenyl)-1H-1,2,4-triazole-3,5-diamine] | 1 to 10 |  |
| CC1CN(C2CCCC2)CCN1c1ccc(Nc2nc(N)n(-c3cc4c(nn3)-c3ccccc3CCC4)n2)cc1 (stereo not drawn) [Compound 16, 1-(6,7-dihydro-5H-benzo[6,7]cyclohepta[1,2-c]pyridazin-3-yl)-N^3-(4-(4-cyclopentyl-2-methylpiperazin-1-yl)phenyl)-1H-1,2,4-triazole-3,5-diamine] | < 1 |  |
| CC1CN(c2ccc(Nc3nc(N)n(-c4cc5c(nn4)-c4ccccc4CCC5)n3)cc2)CC(C)N1 (stereo not drawn) [Compound 17, 1-(6,7-dihydro-5H-benzo[6,7]cyclohepta[1,2-c]pyridazin-3-yl)-N^3-(4-(3,5-dimethylpiperazin-1-yl)phenyl)-1H-1,2,4-triazole-3,5-diamine] | < 1 |  |
| N#Cc1cc(Nc2nc(N)n(-c3cc4c(nn3)-c3ccccc3CCC4)n2)ccc1N1CCC(N2CCCC2)CC1 [Compound 18, 1-(6,7-dihydro-5H-benzo[6,7]cyclohepta[1,2-c]pyridazin-3-yl)-N^3-(4-(4-(pyrrolidin-1-yl)piperidin-1-yl)-3-cyanophenyl)-1H-1,2,4-triazole-3,5-diamine] | < 1 |  |
| CN(C)CCNC(=O)c1ccc(Nc2nc(N)n(-c3cc4c(nn3)-c3ccccc3CCC4)n2)cc1 [Compound 19, 1-(6,7-dihydro-5H-benzo[6,7]cyclohepta[1,2-c]pyridazin-3-yl)-N^3-(4-((2-(dimethylamino)ethyl)-aminocarbonyl)phenyl)-1H-1,2,4-triazole-3,5-diamine] | 1 to 10 |  |
| COCCNC(=O)c1ccc(Nc2nc(N)n(-c3cc4c(nn3)-c3ccccc3CCC4)n2)cc1 [Compound 20, 1-(6,7-dihydro-5H-benzo[6,7]cyclohepta[1,2-c]pyridazin-3-yl)-N^3-(4-((2-(methoxy)ethyl)amino-carbonyl)phenyl)-1H-1,2,4-triazole-3,5-diamine] | 1 to 10 |  |
